Test results from patent US20210045385A1, “PYRIDAZINONE-SUBSTITUTED KETOXIMES AS HERBICIDES” (FMC Corporation, priority 2018, published 2021).

How the values were obtained:
Assay type in all cases: in vivo
[1] = system: Italian ryegrass (Lolium multiflorum); assay: Test A preemergence, visual plant response rating; settings: for Ryegrass, Italian plant response rating: 125 g ai/ha, preemergence, 0 to 100 scale, 0 no effect, 100 complete control; for Ryegrass, Italian plant response rating (0 to 100 scale): 500 g ai/ha Preemergence, approx. 10 days
Procedure, shortened: (§1)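 Ratings use a 0–100 visual scale (100 = complete control) against untreated controls, scored about 10 days after greenhouse treatment. Test chemicals were formulated in surfactant-containing non-phytotoxic solvent and applied either as soil spray after planting (preemergence) or onto one- to two-leaf, 2–10 cm plants (postemergence).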

[2] = system: barnyardgrass (Echinochloa crus-galli); assay: Test A preemergence, visual plant response rating; settings: for Barnyardgrass plant response rating: 125 g ai/ha, preemergence, 0 to 100 scale, 0 no effect, 100 complete control; for Barnyardgrass plant response rating (0 to 100 scale): 500 g ai/ha Preemergence, approx. 10 days
Procedure, shortened: as §1

[3] = system: foxtail, giant (giant foxtail, Setaria faberii); assay: Test A preemergence, visual plant response rating; settings: for Foxtail, Giant plant response rating: 125 g ai/ha, preemergence, 0 to 100 scale, 0 no effect, 100 complete control; for Foxtail, Giant plant response rating (0 to 100 scale): 500 g ai/ha Preemergence, approx. 10 days
Procedure, shortened: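 Greenhouse pot test in loam–sand soil mix: compound in a surfactant-containing non-phytotoxic solvent applied preemergence (directed soil spray) or postemergence (one- to two-leaf plants, 2–10 cm). Injury scored visually after ~10 days, 0–100.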

kochia (Kochia scoparia) [4] = assay: Test A preemergence, visual plant response rating; settings: for Kochia plant response rating: 125 g ai/ha, preemergence, 0 to 100 scale, 0 no effect, 100 complete control; for Kochia plant response rating (0 to 100 scale): 500 g ai/ha Preemergence, approx. 10 days
Procedure, shortened: as §1

[5] = system: pigweed (Amaranthus retroflexus); assay: Test A preemergence, visual plant response rating; settings: for Pigweed plant response rating: 125 g ai/ha, preemergence, 0 to 100 scale, 0 no effect, 100 complete control; for Pigweed plant response rating (0 to 100 scale): 500 g ai/ha Preemergence, approx. 10 days
Procedure, shortened: as §1

[6] = system: ragweed (common ragweed, Ambrosia elatior); assay: Test A preemergence, visual plant response rating; settings: for Ragweed plant response rating: 125 g ai/ha, preemergence, 0 to 100 scale, 0 no effect, 100 complete control; for Ragweed plant response rating (0 to 100 scale): 500 g ai/ha Preemergence, approx. 10 days
Procedure, shortened: as §1

[7] = system: Italian ryegrass (Lolium multiflorum); assay: Test A postemergence, visual plant response rating; settings: for Ryegrass, Italian plant response rating (0 to 100 scale): 500 g ai/ha, postemergence, 0 is no effect, 100 is complete control; for Ryegrass, Italian plant response rating: Postemergence, 125 g ai/ha, 0 to 100 scale (0 no effect, 100 complete control)
Procedure, shortened: as §1

[8] = system: barnyardgrass (Echinochloa crus-galli); assay: Test A postemergence, visual plant response rating; settings: for Barnyardgrass plant response rating (0 to 100 scale): 500 g ai/ha, postemergence, 0 is no effect, 100 is complete control; for Barnyardgrass plant response rating: Postemergence, 125 g ai/ha, 0 to 100 scale (0 no effect, 100 complete control)
Procedure, shortened: as §1

[9] = system: blackgrass (Alopecurus myosuroides); assay: Test A postemergence, visual plant response rating; settings: for Blackgrass plant response rating (0 to 100 scale): 500 g ai/ha, postemergence, 0 is no effect, 100 is complete control; for Blackgrass plant response rating: Postemergence, 125 g ai/ha, 0 to 100 scale (0 no effect, 100 complete control)
Procedure, shortened: as §1

corn (Zea mays) = assay: Test A postemergence, visual plant response rating; settings: for Corn plant response rating (0 to 100 scale): 500 g ai/ha, postemergence, 0 is no effect, 100 is complete control; for Corn plant response rating: Postemergence, 125 g ai/ha, 0 to 100 scale (0 no effect, 100 complete control)
Procedure, shortened: as §1

[10] = system: foxtail, giant (giant foxtail, Setaria faberii); assay: Test A postemergence, visual plant response rating; settings: for Foxtail, Giant plant response rating (0 to 100 scale): 500 g ai/ha, postemergence, 0 is no effect, 100 is complete control; for Foxtail, Giant plant response rating: Postemergence, 125 g ai/ha, 0 to 100 scale (0 no effect, 100 complete control)
Procedure, shortened: as §1

[11] = system: galium (catchweed bedstraw, Galium aparine); assay: Test A postemergence, visual plant response rating; settings: for Galium plant response rating (0 to 100 scale): 500 g ai/ha, postemergence, 0 is no effect, 100 is complete control; for Galium plant response rating: Postemergence, 125 g ai/ha, 0 to 100 scale (0 no effect, 100 complete control)
Procedure, shortened: as §1

kochia (Kochia scoparia) [12] = assay: Test A postemergence, visual plant response rating; settings: for Kochia plant response rating (0 to 100 scale): 500 g ai/ha, postemergence, 0 is no effect, 100 is complete control; for Kochia plant response rating: Postemergence, 125 g ai/ha, 0 to 100 scale (0 no effect, 100 complete control)
Procedure, shortened: as §1

[13] = system: pigweed (Amaranthus retroflexus); assay: Test A postemergence, visual plant response rating; settings: for Pigweed plant response rating (0 to 100 scale): 500 g ai/ha, postemergence, 0 is no effect, 100 is complete control; for Pigweed plant response rating: Postemergence, 125 g ai/ha, 0 to 100 scale (0 no effect, 100 complete control)
Procedure, shortened: as §1

[14] = system: ragweed (common ragweed, Ambrosia elatior); assay: Test A postemergence, visual plant response rating; settings: for Ragweed plant response rating (0 to 100 scale): 500 g ai/ha, postemergence, 0 is no effect, 100 is complete control; for Ragweed plant response rating: Postemergence, 125 g ai/ha, 0 to 100 scale (0 no effect, 100 complete control)
Procedure, shortened: as §1

[15] = system: wheat (Triticum aestivum); assay: Test A postemergence, visual plant response rating; settings: for Wheat plant response rating (0 to 100 scale): 500 g ai/ha, postemergence, 0 is no effect, 100 is complete control; for Wheat plant response rating: Postemergence, 125 g ai/ha, 0 to 100 scale (0 no effect, 100 complete control)
Procedure, shortened: as §1

[16] = system: barnyardgrass (Echinochloa crus-galli); assay: Test B flooded paddy test, visual plant response rating; settings: 250 g ai/ha, Flood, applied to paddy water, 2-leaf stage, evaluated after 13 to 15 days
Procedure, shortened: (§2)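 Flooded-pot treatment: water 3 cm over the soil, chemical delivered into that water, depth unchanged for the duration. Assessed by eye versus controls following 13–15 greenhouse days; plants were at 2 leaves when dosed.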

[17] = system: ducksalad (Heteranhera limosa); assay: as above; settings: 250 g ai/ha, Flood, applied to paddy water, 2-leaf stage, evaluated after 13 to 15 days
Procedure, shortened: as §2

rice (Oryza sativa) = assay: as above; settings: 250 g ai/ha, Flood, applied to paddy water, 2-leaf stage, evaluated after 13 to 15 days
Procedure, shortened: as §2

[18] = system: sedge, umbrella (small-flower umbrella sedge, Cyperus difformis); assay: as above; settings: 250 g ai/ha, Flood, applied to paddy water, 2-leaf stage, evaluated after 13 to 15 days
Procedure, shortened: as §2

SMILES | Ryegrass, Italian plant response rating [1] | Ryegrass, Italian plant response rating (0 to 100 scale) [1] | Barnyardgrass plant response rating [2] | Barnyardgrass plant response rating (0 to 100 scale) [2] | Foxtail, Giant plant response rating [3] | Foxtail, Giant plant response rating (0 to 100 scale) [3] | Kochia plant response rating (kochia (Kochia scoparia) [4]) | Kochia plant response rating (0 to 100 scale) (kochia (Kochia scoparia) [4]) | Pigweed plant response rating [5] | Pigweed plant response rating (0 to 100 scale) [5] | Ragweed plant response rating [6] | Ragweed plant response rating (0 to 100 scale) [6] | Ryegrass, Italian plant response rating (0 to 100 scale) [7] | Ryegrass, Italian plant response rating [7] | Barnyardgrass plant response rating (0 to 100 scale) [8] | Barnyardgrass plant response rating [8] | Blackgrass plant response rating (0 to 100 scale) [9] | Blackgrass plant response rating [9] | Corn plant response rating (0 to 100 scale) (corn (Zea mays)) | Corn plant response rating (corn (Zea mays)) | also measured
CON=C(c1c(OC(C)=O)c(C)nn(C)c1=O)c1cccc2ccccc12 [Compound 48] | 40 | 70 | 20 | 70 | 90 | 90 | 40 | 100 | 30 | 100 | 100 | 100 | 80 | 70 | 30 | 20 | 90 | 70 | 80 | 10 | Foxtail, Giant plant response rating (0 to 100 scale) [10]: 80; Foxtail, Giant plant response rating [10]: 30; Galium plant response rating (0 to 100 scale) [11]: 90; Galium plant response rating [11]: 80; Kochia plant response rating (0 to 100 scale) (kochia (Kochia scoparia) [12]): 80; Kochia plant response rating (kochia (Kochia scoparia) [12]): 70; Pigweed plant response rating (0 to 100 scale) [13]: 90; Pigweed plant response rating [13]: 80; Ragweed plant response rating (0 to 100 scale) [14]: 90; Ragweed plant response rating [14]: 80; Wheat plant response rating (0 to 100 scale) [15]: 10; Wheat plant response rating [15]: 0; Plant response rating, Barnyardgrass (0 to 100 scale, 0 is no effect, 100 is complete control) [16]: 0; Plant response rating, Ducksalad (0 to 100 scale, 0 is no effect, 100 is complete control) [17]: 0; Plant response rating, Rice (0 to 100 scale, 0 is no effect, 100 is complete control) (rice (Oryza sativa)): 0; Plant response rating, Sedge, Umbrella (0 to 100 scale, 0 is no effect, 100 is complete control) [18]: 0
CCc1ccccc1/C(=N\OC)c1c(O)c(C)nn(C)c1=O [Compound 69] | 10 | 80 | 0 | 10 | 10 | 30 | 0 | 10 | 10 | 70 | 10 | 40 | 80 | 80 | 30 | 20 | 60 | 10 | 20 | 0 | Foxtail, Giant plant response rating (0 to 100 scale) [10]: 40; Foxtail, Giant plant response rating [10]: 10; Galium plant response rating (0 to 100 scale) [11]: 80; Galium plant response rating [11]: 70; Kochia plant response rating (0 to 100 scale) (kochia (Kochia scoparia) [12]): 70; Kochia plant response rating (kochia (Kochia scoparia) [12]): 50; Pigweed plant response rating (0 to 100 scale) [13]: 70; Pigweed plant response rating [13]: 40; Ragweed plant response rating (0 to 100 scale) [14]: 70; Ragweed plant response rating [14]: 70; Wheat plant response rating (0 to 100 scale) [15]: 0; Wheat plant response rating [15]: 0; Plant response rating, Barnyardgrass (0 to 100 scale, 0 is no effect, 100 is complete control) [16]: 0; Plant response rating, Ducksalad (0 to 100 scale, 0 is no effect, 100 is complete control) [17]: 0; Plant response rating, Rice (0 to 100 scale, 0 is no effect, 100 is complete control) (rice (Oryza sativa)): 0; Plant response rating, Sedge, Umbrella (0 to 100 scale, 0 is no effect, 100 is complete control) [18]: 0
CCO/N=C(\c1c(O)c(C)nn(C)c1=O)c1cccc2ccccc12 [Compound 79] | 30 | 60 | 70 | 80 | 60 | 90 | 10 | 70 | 30 | 100 | 90 | 100 | 30 | 30 | 90 | 40 | 80 | 70 | 20 | 10 | Foxtail, Giant plant response rating (0 to 100 scale) [10]: 80; Foxtail, Giant plant response rating [10]: 60; Galium plant response rating (0 to 100 scale) [11]: 100; Galium plant response rating [11]: 90; Kochia plant response rating (0 to 100 scale) (kochia (Kochia scoparia) [12]): 80; Kochia plant response rating (kochia (Kochia scoparia) [12]): 70; Pigweed plant response rating (0 to 100 scale) [13]: 90; Pigweed plant response rating [13]: 80; Ragweed plant response rating (0 to 100 scale) [14]: 100; Ragweed plant response rating [14]: 90; Wheat plant response rating (0 to 100 scale) [15]: 0; Wheat plant response rating [15]: 0; Plant response rating, Barnyardgrass (0 to 100 scale, 0 is no effect, 100 is complete control) [16]: 0; Plant response rating, Ducksalad (0 to 100 scale, 0 is no effect, 100 is complete control) [17]: 0; Plant response rating, Rice (0 to 100 scale, 0 is no effect, 100 is complete control) (rice (Oryza sativa)): 0; Plant response rating, Sedge, Umbrella (0 to 100 scale, 0 is no effect, 100 is complete control) [18]: 0
